Laboratory results as given in patent US20260130395A1, “Water Dispersible Botanical Compositions” (Aquila Black Limited, priority 2021, published 2026).

Experiment: Stability of cannabinoid compounds and Vitamin E components in Beverage 2 (AB Red) by LCMSMS
Format: physicochemical

Measured: Stability of Plant-Derived Cannabinoid Compounds in AB Red

CCCc1cc(O)c2c(c1)OC(C)(C)[C@@H]1CCC(C)=C[C@@H]21 [THCV, delta-9-tetrahydrocannabivarin]
3.13 µg/mL: stored at 8° C., 26 days | stored at 8° C., 420 days | stored at 21-25° C., 1 days
3.11 µg/mL: stored at 8° C., 60 days | stored at 21-25° C., 17 days | stored at 21-25° C., 26 days
3.05 µg/mL: stored at 8° C., 480 days | stored at 21-25° C., 90 days | stored at 21-25° C., 360 days
3.20 µg/mL: stored at 8° C., 3 days | stored at 8° C., 30 days | stored at 21-25° C., 2 days | stored at 21-25° C., 15 days | stored at 21-25° C., 16 days
3.23 µg/mL: stored at 21-25° C., 23 days
3.24 µg/mL: stored at 8° C., 5 days | stored at 8° C., 11 days | stored at 21-25° C., 11 days | stored at 21-25° C., 12 days | stored at 21-25° C., 25 days
3.10 µg/mL: stored at 8° C., 90 days | stored at 8° C., 120 days | stored at 8° C., 180 days | stored at 21-25° C., 180 days | stored at 21-25° C., 420 days
3.18 µg/mL: stored at 21-25° C., 22 days | stored at 21-25° C., 60 days | stored at 21-25° C., 240 days
3.12 µg/mL: stored at 8° C., 17 days
2.99 µg/mL: stored at 8° C., 540 days
3.03 µg/mL: stored at 21-25° C., 210 days
3.25 µg/mL: stored at 8° C., 12 days | stored at 8° C., 16 days | stored at 8° C., 23 days | stored at 8° C., 25 days | stored at 21-25° C., 3 days | stored at 21-25° C., 5 days | stored at 21-25° C., 24 days
3.19 µg/mL: stored at 8° C., 1 days | stored at 8° C., 15 days | stored at 8° C., 19 days | stored at 21-25° C., 8 days | stored at 21-25° C., 18 days | stored at 21-25° C., 19 days | stored at 21-25° C., 330 days
3.04 µg/mL: stored at 21-25° C., 270 days | stored at 21-25° C., 390 days | stored at 21-25° C., 480 days
3.17 µg/mL: stored at 8° C., 2 days | stored at 8° C., 8 days | stored at 8° C., 18 days | stored at 21-25° C., 9 days | stored at 21-25° C., 150 days
2.98 µg/mL: stored at 21-25° C., 570 days
3.22 µg/mL: stored at 8° C., 0 days | stored at 8° C., 22 days | stored at 8° C., 29 days | stored at 21-25° C., 0 days
3.09 µg/mL: stored at 21-25° C., 10 days | stored at 21-25° C., 120 days
3.08 µg/mL: stored at 8° C., 240 days | stored at 8° C., 360 days | stored at 8° C., 390 days | stored at 8° C., 450 days
2.95 µg/mL: stored at 8° C., 510 days | stored at 8° C., 570 days | stored at 21-25° C., 540 days
3.01 µg/mL: stored at 21-25° C., 510 days
3.14 µg/mL: stored at 8° C., 9 days | stored at 8° C., 10 days | stored at 21-25° C., 300 days | stored at 21-25° C., 450 days
3.15 µg/mL: stored at 8° C., 24 days | stored at 8° C., 150 days | stored at 8° C., 210 days | stored at 8° C., 270 days | stored at 8° C., 300 days | stored at 8° C., 330 days | stored at 21-25° C., 29 days | stored at 21-25° C., 30 days
